Reference: the NIST ThermoML archive (doi:10.1021/je200811n)
Numbers after ± are expanded uncertainties.

Conditions: Hot wire method

**Q.** What does the source list for `C=C(F)C(F)(F)F` [2,3,3,3-tetrafluoro-1-propene]?
**A.** thermal conductivity (261.41 K, 6311 kPa, Liquid): 0.07964 ± 0.00089 W/m/K; thermal conductivity (261.48 K, 992 kPa, Liquid): 0.07655 ± 0.00085 W/m/K; thermal conductivity (261.48 K, 996 kPa, Liquid): 0.07656 ± 0.00089 W/m/K; thermal conductivity (261.5 K, 6309 kPa, Liquid): 0.07953 ± 0.0009 W/m/K; thermal conductivity (261.84 K, 987 kPa, Liquid): 0.07643 ± 0.00085 W/m/K; thermal conductivity (261.85 K, 6313 kPa, Liquid): 0.07948 ± 0.00089 W/m/K; thermal conductivity (261.87 K, 11445 kPa, Liquid): 0.08189 ± 0.00093 W/m/K; thermal conductivity (261.88 K, 21642 kPa, Liquid): 0.0867 ± 0.00099 W/m/K; thermal conductivity (261.96 K, 983 kPa, Liquid): 0.07514 ± 0.00084 W/m/K; thermal conductivity (261.97 K, 1005 kPa, Liquid): 0.07519 ± 0.00084 W/m/K; thermal conductivity (261.97 K, 6311 kPa, Liquid): 0.07846 ± 0.00087 W/m/K; thermal conductivity (261.97 K, 11446 kPa, Liquid): 0.0813 ± 0.00091 W/m/K; thermal conductivity (261.98 K, 21635 kPa, Liquid): 0.08614 ± 0.00098 W/m/K; thermal conductivity (262.35 K, 11445 kPa, Liquid): 0.08085 ± 0.00089 W/m/K; thermal conductivity (262.35 K, 16435 kPa, Liquid): 0.08308 ± 0.00091 W/m/K; thermal conductivity (262.35 K, 21632 kPa, Liquid): 0.08538 ± 0.00094 W/m/K; thermal conductivity (262.36 K, 6309 kPa, Liquid): 0.0784 ± 0.00086 W/m/K; thermal conductivity (262.37 K, 990 kPa, Liquid): 0.0754 ± 0.00084 W/m/K; thermal conductivity (262.38 K, 999 kPa, Liquid): 0.07563 ± 0.00084 W/m/K; thermal conductivity (262.48 K, 21630 kPa, Liquid): 0.08542 ± 0.00094 W/m/K; thermal conductivity (262.49 K, 11446 kPa, Liquid): 0.08082 ± 0.00089 W/m/K; thermal conductivity (262.49 K, 16441 kPa, Liquid): 0.08301 ± 0.00091 W/m/K; thermal conductivity (262.51 K, 984 kPa, Liquid): 0.07532 ± 0.00083 W/m/K; thermal conductivity (262.51 K, 6308 kPa, Liquid): 0.07834 ± 0.00086 W/m/K; thermal conductivity (262.53 K, 1003 kPa, Liquid): 0.0754 ± 0.00083 W/m/K; thermal conductivity (262.87 K, 94 kPa, Gas): 0.01103 ± 0.00038 W/m/K; thermal conductivity (262.87 K, 141 kPa, Gas): 0.01112 ± 0.00038 W/m/K; thermal conductivity (262.87 K, 180 kPa, Gas): 0.01121 ± 0.00039 W/m/K; thermal conductivity (262.87 K, 21632 kPa, Liquid): 0.08568 ± 0.00094 W/m/K; thermal conductivity (262.89 K, 16441 kPa, Liquid): 0.0831 ± 0.00091 W/m/K; thermal conductivity (262.9 K, 11444 kPa, Liquid): 0.08074 ± 0.00089 W/m/K; thermal conductivity (262.93 K, 6308 kPa, Liquid): 0.07833 ± 0.00086 W/m/K; thermal conductivity (262.95 K, 981 kPa, Liquid): 0.07547 ± 0.00083 W/m/K; thermal conductivity (262.97 K, 1000 kPa, Liquid): 0.07554 ± 0.00084 W/m/K; thermal conductivity (263.04 K, 21629 kPa, Liquid): 0.08528 ± 0.00093 W/m/K; thermal conductivity (263.06 K, 16439 kPa, Liquid): 0.0831 ± 0.00091 W/m/K; thermal conductivity (263.08 K, 11447 kPa, Liquid): 0.08051 ± 0.00089 W/m/K; thermal conductivity (263.1 K, 94 kPa, Gas): 0.01092 ± 0.00038 W/m/K; thermal conductivity (263.1 K, 139 kPa, Gas): 0.01099 ± 0.00038 W/m/K; thermal conductivity (263.1 K, 178 kPa, Gas): 0.01109 ± 0.00038 W/m/K; thermal conductivity (263.11 K, 6306 kPa, Liquid): 0.07818 ± 0.00086 W/m/K; thermal conductivity (263.14 K, 981 kPa, Liquid): 0.07525 ± 0.00083 W/m/K; thermal conductivity (263.15 K, 1006 kPa, Liquid): 0.07526 ± 0.00083 W/m/K; thermal conductivity (263.15 K, Liquid): 0.07493 ± 0.0005 W/m/K; thermal conductivity (263.3 K, 186 kPa, Gas): 0.01073 ± 0.00037 W/m/K; thermal conductivity (263.33 K, 145 kPa, Gas): 0.01079 ± 0.00037 W/m/K; thermal conductivity (263.34 K, 176 kPa, Gas): 0.01103 ± 0.00038 W/m/K; thermal conductivity (263.35 K, 137 kPa, Gas): 0.01093 ± 0.00038 W/m/K; thermal conductivity (263.36 K, 94 kPa, Gas): 0.01083 ± 0.00037 W/m/K; thermal conductivity (263.41 K, 93 kPa, Gas): 0.01084 ± 0.00037 W/m/K; thermal conductivity (263.45 K, 21625 kPa, Liquid): 0.0853 ± 0.00094 W/m/K; thermal conductivity (263.47 K, 16441 kPa, Liquid): 0.08318 ± 0.00091 W/m/K; thermal conductivity (263.51 K, 11446 kPa, Liquid): 0.08071 ± 0.00089 W/m/K; thermal conductivity (263.55 K, 6310 kPa, Liquid): 0.07796 ± 0.00086 W/m/K; thermal conductivity (263.59 K, 977 kPa, Liquid): 0.0751 ± 0.00083 W/m/K; thermal conductivity (263.61 K, 184 kPa, Gas): 0.01083 ± 0.00037 W/m/K; thermal conductivity (263.61 K, 1002 kPa, Liquid): 0.07516 ± 0.00083 W/m/K; thermal conductivity (263.65 K, 21628 kPa, Liquid): 0.08509 ± 0.00093 W/m/K; thermal conductivity (263.66 K, 143 kPa, Gas): 0.01082 ± 0.00037 W/m/K; thermal conductivity (263.68 K, 16436 kPa, Liquid): 0.08284 ± 0.00091 W/m/K; thermal conductivity (263.72 K, 11448 kPa, Liquid): 0.08052 ± 0.00089 W/m/K; thermal conductivity (263.76 K, 94 kPa, Gas): 0.01087 ± 0.00038 W/m/K; thermal conductivity (263.77 K, 6312 kPa, Liquid): 0.07776 ± 0.00086 W/m/K; thermal conductivity (263.83 K, 978 kPa, Liquid): 0.07472 ± 0.00084 W/m/K; thermal conductivity (263.83 K, 1003 kPa, Liquid): 0.0748 ± 0.00084 W/m/K; thermal conductivity (263.97 K, 181 kPa, Gas): 0.01086 ± 0.00038 W/m/K; thermal conductivity (264.03 K, 141 kPa, Gas): 0.01087 ± 0.00038 W/m/K; thermal conductivity (264.1 K, 21626 kPa, Liquid): 0.08524 ± 0.00093 W/m/K; thermal conductivity (264.13 K, 94 kPa, Gas): 0.01089 ± 0.00038 W/m/K; thermal conductivity (264.14 K, 16440 kPa, Liquid): 0.08287 ± 0.00091 W/m/K; thermal conductivity (264.18 K, 11446 kPa, Liquid): 0.08043 ± 0.00089 W/m/K; thermal conductivity (264.33 K, 21622 kPa, Liquid): 0.08504 ± 0.00094 W/m/K; thermal conductivity (264.34 K, 179 kPa, Gas): 0.01089 ± 0.00038 W/m/K; thermal conductivity (264.38 K, 16435 kPa, Liquid): 0.08267 ± 0.00091 W/m/K; thermal conductivity (264.41 K, 140 kPa, Gas): 0.01091 ± 0.00038 W/m/K; thermal conductivity (264.42 K, 11443 kPa, Liquid): 0.08017 ± 0.00088 W/m/K; thermal conductivity (264.55 K, 94 kPa, Gas): 0.01091 ± 0.00038 W/m/K; thermal conductivity (264.75 K, 177 kPa, Gas): 0.01092 ± 0.00038 W/m/K; thermal conductivity (264.83 K, 138 kPa, Gas): 0.01094 ± 0.00038 W/m/K; thermal conductivity (264.99 K, 94 kPa, Gas): 0.01095 ± 0.00038 W/m/K; thermal conductivity (271.81 K, 106 kPa, Gas): 0.01176 ± 0.0004 W/m/K; thermal conductivity (271.82 K, 144 kPa, Gas): 0.01183 ± 0.00041 W/m/K; thermal conductivity (271.83 K, 200 kPa, Gas): 0.01195 ± 0.00041 W/m/K; thermal conductivity (272.04 K, 105 kPa, Gas): 0.01163 ± 0.0004 W/m/K; thermal conductivity (272.04 K, 200 kPa, Gas): 0.01186 ± 0.00041 W/m/K; thermal conductivity (272.05 K, 143 kPa, Gas): 0.0117 ± 0.0004 W/m/K; thermal conductivity (272.22 K, 246 kPa, Gas): 0.01157 ± 0.0004 W/m/K; thermal conductivity (272.22 K, 271 kPa, Gas): 0.01155 ± 0.0004 W/m/K; thermal conductivity (272.24 K, 200 kPa, Gas): 0.01151 ± 0.0004 W/m/K; thermal conductivity (272.28 K, 200 kPa, Gas): 0.01178 ± 0.0004 W/m/K; thermal conductivity (272.29 K, 104 kPa, Gas): 0.01154 ± 0.0004 W/m/K; thermal conductivity (272.29 K, 148 kPa, Gas): 0.01151 ± 0.0004 W/m/K; thermal conductivity (272.3 K, 141 kPa, Gas): 0.01161 ± 0.0004 W/m/K; thermal conductivity (272.34 K, 108 kPa, Gas): 0.01153 ± 0.0004 W/m/K; thermal conductivity (272.5 K, 272 kPa, Gas): 0.01161 ± 0.0004 W/m/K; thermal conductivity (272.54 K, 200 kPa, Gas): 0.01154 ± 0.0004 W/m/K; thermal conductivity (272.6 K, 146 kPa, Gas): 0.01157 ± 0.0004 W/m/K; thermal conductivity (272.67 K, 107 kPa, Gas): 0.01162 ± 0.0004 W/m/K; thermal conductivity (272.83 K, 272 kPa, Gas): 0.0116 ± 0.0004 W/m/K; thermal conductivity (272.84 K, 263 kPa, Gas): 0.01161 ± 0.0004 W/m/K
